Assay results taken from PMC7746945 (Neuro-Oncology, 2020).
Where two headings read alike, the source gives them in different places.

Columns and labels:
[1] = Clinical PK: olaparib in tumor core, tumor margin and plasma of recurrent GBM patients (LC-MS); format: in vivo, human; conditions: for Kp: human, tumor and plasma, oral, ratio between tumor and plasma olaparib concentrations, surgical patients
Description: At neurosurgery, contrast-enhancing tumor regions identified on preoperative MRI scans were targeted for resection. Specimens were assessed by intraoperative cytology; 3 regions of viable, solid tumor from each patient were snap frozen for PK analysis by liquid chromatography mass spectrometry (LC-MS). In the expansion cohort, 5-ALA guided neurosurgery enabled discrimination of fluorescent “core” tissue from nonfluorescent “margin” tissue. Up to 3 tumor margin biopsies were taken from each patient, from each of which half was frozen for PK analysis and half fixed for histology.
100 mg q.d., n = 10; 150 mg q.d., n = 35; 200 mg b.i.d., n = 3. […] All measurements performed by LC-MS.

MDR1 = target: T1, MDR1 (Homo sapiens, UniProt P08183); assay: Directional transport of [14C]-olaparib across MDCKII-MDR1 monolayers, with or without ketoconazole; format: in vitro ADME
T1 construct: host or cells: MDCKII (Madin-Darby canine kidney type II) cells stably expressing human MDR1 cDNA
Description: Canine kidney epithelial cells, stably expressing human MDR1 cDNA (Madin-Darby canine kidney type II [MDCKII]–MDR1 cells) or empty vector (MDCKII control), were used to model the intact BBB and determine permeability coefficients of (^14C)-olaparib in the presence of ketoconazole (25 μM). Whole body autoradiography was performed on male pigmented rats after single oral administration of [^14C]-olaparib (15 mg/kg; 5 MBq/kg). For autoradiography studies, animal care and experiments were carried out in accordance with AstraZeneca guidelines, which comply with UK standards. […] Xenograft experiments were performed under the relevant UK Home Office Project Licence and carried out with ethical approval from the University of Glasgow under the Animal (Scientific Procedures) Act 1986 and the EU directive 2010. Mice were maintained in individually ventilated cages with environmental enrichment and following the guidelines of ARRIVE (Animal Research: Reporting of In Vivo Experiments). […] Ratiometric t-test analysis determined SER confidence intervals and P-values. Further details are available in the Supplementary Material.
Apparent permeability coefficients were calculated for apical to basolateral (Papp a‒b) and basolateral to apical transport (Papp b‒a) as described in Methods. […] (B) Single oral doses of 15 mg/kg [14C]-olaparib were administered to male pigmented rats that were subsequently culled, sectioned, and subjected to whole body autoradiography at the timepoints shown. Radioactivity was excluded from the central nervous system in all animals at all timepoints. […] Blood, tumor, and contralateral (non tumor bearing) brain were harvested and snap frozen at the time points shown. […] Note different y-axis scales.
Monolayers were cultured in Dulbeco’s Modified Eagle Medium (DMEM) supplemented with glucose (4.5 g/L), 10% fetal calf serum, penicillin and streptomycin on semi-permeable filter inserts (Transwell plates 3401, Costar, Cambridge, MA) for three days. Under these conditions MDR1 localises to the apical plasma membrane. Monolayer integrity was assessed by transepithelial electrical resistance (TEER) measurement then inserts washed with Hank’s Balanced Salt Solution (HBSS) and transferred to 12-well plates containing HBSS (to measure apical to basal transport, a – b) or [14C]-olaparib diluted in HBSS (dose solution, to measure basal to apical transport, b – a). After addition of dose solution (a – b) or HBSS (b – a) to the apical chamber, samples of apical and basolateral compartments were collected immediately after dosing and after 120 minutes incubation. Three concentrations of 14C-olaparib were tested (0.1, 1 and 10 µM), each in three replicates. Radioactivity was determined by liquid scintillation counting. […] Transport of olaparib or reference substrate cimetidine was determined in MDCKII-BCRP cells. Apparent permeability coefficients (Papp) were calculated:
Efflux ratio = Papp b - a /a - b = Papp b - a / Papp a - b (mean)
MDCKII corrected efflux ratio =
Papp b - a /a - b ratio in transfected MDCKII cells
Papp b - a /a - b ratio in MDCKII control cells (mean)

[2] = 200 mg b.i.d. for 7 doses before resection, 9 samples from 3 patients
[3] = 21 tumor margin samples, 9 dose expansion patients
[4] = MDCK-MDR1, with ketoconazole 25 µM, read-out: Papp b-a + ketoconazole (SD)

T1 sequence (P08183 whole entry): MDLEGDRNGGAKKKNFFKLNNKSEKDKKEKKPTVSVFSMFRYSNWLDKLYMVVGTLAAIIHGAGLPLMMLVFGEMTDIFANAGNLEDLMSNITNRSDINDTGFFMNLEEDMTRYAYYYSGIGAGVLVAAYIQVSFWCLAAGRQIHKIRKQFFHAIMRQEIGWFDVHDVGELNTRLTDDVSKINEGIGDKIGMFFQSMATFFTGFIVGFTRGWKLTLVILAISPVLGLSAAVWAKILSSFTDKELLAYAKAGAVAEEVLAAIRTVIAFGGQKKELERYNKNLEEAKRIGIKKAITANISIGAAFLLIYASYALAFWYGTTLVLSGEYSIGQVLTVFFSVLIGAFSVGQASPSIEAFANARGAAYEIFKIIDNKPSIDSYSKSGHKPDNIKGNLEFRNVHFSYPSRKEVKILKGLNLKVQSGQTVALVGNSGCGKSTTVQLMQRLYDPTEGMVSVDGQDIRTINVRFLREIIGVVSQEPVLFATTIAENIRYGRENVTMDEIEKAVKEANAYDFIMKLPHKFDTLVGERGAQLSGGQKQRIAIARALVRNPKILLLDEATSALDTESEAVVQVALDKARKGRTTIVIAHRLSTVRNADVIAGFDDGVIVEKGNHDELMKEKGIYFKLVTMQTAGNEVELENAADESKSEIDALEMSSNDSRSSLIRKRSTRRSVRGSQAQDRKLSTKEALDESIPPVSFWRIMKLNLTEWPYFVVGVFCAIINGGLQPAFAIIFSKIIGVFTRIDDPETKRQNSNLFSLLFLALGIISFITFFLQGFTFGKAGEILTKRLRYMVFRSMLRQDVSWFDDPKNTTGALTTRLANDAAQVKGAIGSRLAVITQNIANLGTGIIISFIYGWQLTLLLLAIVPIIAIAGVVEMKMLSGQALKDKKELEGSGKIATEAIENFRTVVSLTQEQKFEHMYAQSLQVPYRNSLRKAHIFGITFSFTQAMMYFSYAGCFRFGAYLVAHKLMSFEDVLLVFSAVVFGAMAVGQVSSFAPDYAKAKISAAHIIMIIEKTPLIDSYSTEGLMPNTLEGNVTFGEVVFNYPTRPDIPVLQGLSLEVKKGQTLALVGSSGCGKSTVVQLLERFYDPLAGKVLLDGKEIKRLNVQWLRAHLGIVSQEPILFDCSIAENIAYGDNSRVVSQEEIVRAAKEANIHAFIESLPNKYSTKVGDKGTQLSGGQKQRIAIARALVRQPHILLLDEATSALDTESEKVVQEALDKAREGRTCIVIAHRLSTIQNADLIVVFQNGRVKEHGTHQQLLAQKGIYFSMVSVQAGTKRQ

O=C(c1cc(Cc2n[nH]c(=O)c3ccccc23)ccc1F)N1CCN(C(=O)C2CC2)CC1 [olaparib, 4-[3-(4-cyclopropanecarbonylpiperazine-1-carbonyl)-4-fluorobenzyl]-2H-phthalazin-1-one]
mean olaparib concentration in stage 1 tumor samples [1, 2]: 471 nM
olaparib concentration in stage 1 tumor samples, range [1, 2]: 164 to 992 nM
tumor margin specimens with olaparib detected ([1]; 9 patients): 21/21
tumor margin olaparib concentration, median [1, 3]: 512.3 nM
tumor margin olaparib concentration, range [1, 3]: 97 to 1237 nM
tumor core specimens with olaparib detected ([1]; 27 patients): 71/71
tumor core olaparib concentration, range ([1]; 71 tumor core samples, 27 surgical patients): 97 to 1374 nM
tumor core olaparib concentration, median ([1]; 71 tumor core samples, 27 surgical patients, 3–5 hours after final preoperative dose): 496 nM
Kp ([1]; mean): 0.25
Kp ([1]; range): 0.01 to 0.9
tumor olaparib concentrations, range in all specimens ([1]; tumor core and margin): 100 to 1000 nM
Papp A→B at 120 min, 1 µM (MDR1; MDCK-MDR1): 2.8 nm/s
Papp A→B at 120 min, 10 µM (MDR1; MDCK-MDR1): 5.8 nm/s
Papp B→A at 120 min, 1 µM (MDR1; MDCK-MDR1): 406 nm/s
Papp B→A at 120 min, 10 µM (MDR1; MDCK-MDR1, read-out: Papp b-a (SD)): 394 nm/s
Papp B→A at 120 min, 1 µM (MDR1; [4]): 241 nm/s
Papp B→A at 120 min, 10 µM (MDR1; [4]): 171 nm/s
